Experimental data reported in article PMC7489219 (Molecular Brain, 2020).
Structures can show the parent of a compound that is named as a salt.

system: T1, primary mouse cortical neurons; assay: cells; parameters: Protection from NMDA-induced (30 uM, 10 min) neuronal death; Hoechst nuclear morphology by automated microscopy; conditions: Cortical neurone, 20 h, read-out: % inhibition, inhibition of NMDA-induced cell death (protection score), 30 min pre-treatment
T1 construct: primary cortical neurons, DIV 10
Summary of the method: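 On DIV 10, primary mouse cortical neurons were given compound at 10 μM for 30 min at 37 °C, then 30 μM NMDA for 10 min, washed, and kept 20 h with compound. Dead cells were scored by nuclear morphology, and % protection was derived from survival relative to vehicle + NMDA and untreated controls.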

Point of comparison: COc1ccc(CCC(=O)c2c(O)cc(O[C@@H]3O[C@H](CO)[C@@H](O)[C@H](O)[C@H]3O[C@@H]3O[C@@H](C)[C@H](O)[C@@H](O)[C@H]3O)cc2O)cc1O [Neohesperidin dihydrochalcone (Nhdc)], inhibition at 10 µM -3.39%. Against it:
- Cn1ccnc1S [Methimazole (Tapazole, Northyx)] — higher, 15.5%
- COc1ccccc1OCC(O)COC(N)=O (centres unmarked) [Methocarbamol (Robaxin)] — higher, -0.235%
- COc1c2occc2cc2ccc(=O)oc12 [Methoxsalen (Oxsoralen)] — lower, -4.76%
- COc1ccc([C@@H]2CC(=O)c3c(O)cc(O[C@@H]4O[C@H](CO[C@@H]5O[C@@H](C)[C@H](O)[C@@H](O)[C@H]5O)[C@@H](O)[C@H](O)[C@H]4O)cc3O2)cc1OC [Methyl-Hesperidin] — higher, -2.33%
- C[C@H]1C[C@@H]2[C@H]([C@@H](O)C[C@@]3(C)[C@H]2CC[C@]3(O)C(=O)CO)[C@@]2(C)C=CC(=O)C=C12 [Methylprednisolone] — higher, 7.52%
- Cc1ccccc1N1C(=O)c2cc(S(N)(=O)=O)c(Cl)cc2NC1C (centres unmarked) [Metolazone (Zaroxolyn)] — higher, 27.9%
- CN1CCN2c3ccccc3Cc3ccccc3C2C1 (centres unmarked) [Mianserin hydrochloride] — higher, -2.1%
- Cc1[nH]c(=O)c(C#N)cc1-c1ccncc1 [Milrinone (Primacor)] — lower, -10.4%
- N=c1nc(N2CCCCC2)cc(N)n1O [Minoxidil] — higher, -1.14%
- CC[C@@]1([C@@H]2O[C@@H]([C@H]3O[C@@](O)(CO)[C@H](C)C[C@@H]3C)C[C@@H]2C)CC[C@H]([C@]2(C)CC[C@]3(C[C@H](O)[C@@H](C)[C@@H]([C@@H](C)[C@@H](OC)[C@H](C)C(=O)O)O3)O2)O1 [Monensin sodium salt (Coban)] — higher, 3.22%
- Oc1ccc(OCc2ccccc2)cc1 [Monobenzone (Benoquin)] — higher, 49.3%
- O=c1c(O)c(-c2ccc(O)cc2O)oc2cc(O)cc(O)c12 [Morin hydrate (Aurantica)] — higher, -2.71%
- N=C(N)NC(=N)N1CCOCC1 [Moroxydine] — higher, 0.926%
- COc1c(N2C[C@@H]3CCCN[C@@H]3C2)c(F)cc2c(=O)c(C(=O)O)cn(C3CC3)c12 [Moxifloxacin hydrochloride] — higher, 0.0291%
- COc1c(C)c2c(c(O)c1C/C=C(\C)CCC(=O)OCCN1CCOCC1)C(=O)OC2 [Mycophenolate mofetil (CellCept)] — higher, 4.41%
- COc1c(C)c2c(c(O)c1C/C=C(\C)CCC(=O)O)C(=O)OC2 [Mycophenolic (Mycophenolate)] — lower, -10.2%
- O=c1c(O)c(-c2cc(O)c(O)c(O)c2)oc2cc(O)cc(O)c12 [Myricetin (Cannabiscetin)] — higher, -1.08%
- C[C@@H]1O[C@@H](Oc2c(-c3cc(O)c(O)c(O)c3)oc3cc(O)cc(O)c3c2=O)[C@H](O)[C@H](O)[C@H]1O [Myricitrin (Myricitrine)] — higher, -2.22%
- COc1ccccc1N1CCN(CC(O)COc2cccc3ccccc23)CC1 (centres unmarked) [Naftopidil (Flivas)] — lower, -8.14%
- CCn1cc(C(=O)O)c(=O)c2ccc(C)nc21 [Nalidixic acid (NegGram)] — higher, -2.4%
- c1ccc2c(CC3=NCCN3)cccc2c1 [Naphazoline hydrochloride (Naphcon)] — higher, -0.842%
- O=C1C[C@@H](c2ccc(O)cc2)Oc2cc(O)cc(O)c21 [Naringenin] — lower, -3.44%
- C[C@@H]1O[C@@H](O[C@H]2[C@H](Oc3cc(O)c4c(c3)O[C@H](c3ccc(O)cc3)CC4=O)O[C@H](CO)[C@@H](O)[C@@H]2O)[C@H](O)[C@H](O)[C@H]1O [Naringin (Naringoside)] — higher, -0.553%
- C[C@@H]1O[C@@H](O[C@H]2[C@H](Oc3cc(O)c(C(=O)CCc4ccc(O)cc4)c(O)c3)O[C@H](CO)[C@@H](O)[C@@H]2O)[C@H](O)[C@H](O)[C@H]1O [Naringin Dihydrochalcone (Naringin DC)] — higher, 7.97%
- C[C@@H]1C/C=C/C=C/C=C/C=C/[C@H](O[C@@H]2O[C@H](C)[C@@H](O)[C@H](N)[C@@H]2O)C[C@@H]2O[C@](O)(C[C@@H](O)C[C@H]3O[C@@H]3/C=C/C(=O)O1)C[C@H](O)[C@H]2C(=O)O [Natamycin (Pimaricin)] — higher, -0.639%
- CC(C)[C@H]1CC[C@H](C(=O)N[C@H](Cc2ccccc2)C(=O)O)CC1 [Nateglinide (Starlix)] — higher, 42.4%
- O[C@@H](CNC[C@H](O)[C@H]1CCc2cc(F)ccc2O1)[C@@H]1CCc2cc(F)ccc2O1 [Nebivolol (Bystolic)] — higher, -2.64%
- Cc1cccc(C)c1NC(=O)CN1CCCC1=O [Nefiracetam (Translon)] — higher, 7.17%
- COc1nc(N)nc2c1ncn2[C@@H]1O[C@H](CO)[C@@H](O)[C@@H]1O [Nelarabine (Arranon)] — lower, -9.06%
- COc1ccc([C@@H]2CC(=O)c3c(O)cc(O[C@@H]4O[C@H](CO)[C@@H](O)[C@H](O)[C@H]4O[C@@H]4O[C@@H](C)[C@H](O)[C@@H](O)[C@H]4O)cc3O2)cc1O [Neohesperidin] — higher, 4.46%
- NC[C@@H]1O[C@H](O[C@H]2[C@@H](O)[C@H](O[C@@H]3[C@@H](O)[C@H](N)C[C@H](N)[C@H]3O[C@H]3O[C@H](CN)[C@@H](O)[C@H](O)[C@H]3N)O[C@@H]2CO)[C@H](N)[C@@H](O)[C@@H]1O [Neomycin sulfate] — higher, -1.47%
- CN(C)C(=O)Oc1cccc([N+](C)(C)C)c1 [Neostigmine bromide (Prostigmin)] — higher, -0.504%
- NC(=O)Cc1cccc(C(=O)c2ccccc2)c1N [Nepafenac] — lower, -12.2%
- Cc1ccnc2c1NC(=O)c1cccnc1N2C1CC1 [Nevirapine (Viramune)] — higher, 9.64%
- O=C(O)c1cccnc1 [Niacin (Nicotinic acid)] — higher, -0.509%
- O=C(NCCO[N+](=O)[O-])c1cccnc1 [Nicorandil (Ikorel)] — higher, 51%
- NC(=O)c1cccnc1 [Nicotinamide (Niacinamide)] — higher, -2.77%
- Cc1cn(-c2cc(NC(=O)c3ccc(C)c(Nc4nccc(-c5cccnc5)n4)c3)cc(C(F)(F)F)c2)cn1 [Nilotinib (AMN-107)] — lower, -7.37%
- COCCOC(=O)C1=C(C)NC(C)=C(C(=O)OC(C)C)C1c1cccc([N+](=O)[O-])c1 (centres unmarked) [Nimodipine (Nimotop)] — higher, -0.576%
- COC(=O)C1=C(C)NC(C)=C(C(=O)OCC(C)C)C1c1ccccc1[N+](=O)[O-] (centres unmarked) [Nisoldipine (Sular)] — higher, -2.86%
- NC(=O)N/N=C/c1ccc([N+](=O)[O-])o1 [Nitrofurazone (Nitrofural)] — higher, 29.8%
- CNC(=C[N+](=O)[O-])NCCSCc1csc(CN(C)C)n1 [Nizatidine] — higher, -2.67%
- COc1ccc(-c2cc(=O)c3c(OC)c(OC)c(OC)c(OC)c3o2)cc1OC [Nobiletin (Hexamethoxyflavone)] — higher, -0.471%
- CCn1cc(C(=O)O)c(=O)c2cc(F)c(N3CCNCC3)cc21 [Norfloxacin (Norxacin)] — higher, 2.34%
- CO[C@@H]1[C@@H](OC(N)=O)[C@@H](O)[C@H](Oc2ccc3c(O)c(NC(=O)c4ccc(O)c(CC=C(C)C)c4)c(=O)oc3c2C)OC1(C)C [Novobiocin sodium (Albamycin)] — higher, -0.631%
- C[C@@H]1[C@H](O)[C@@H](C)/C=C/C=C/CC/C=C/C=C/C=C/C=C/[C@H](O[C@@H]2O[C@H](C)[C@@H](O)[C@H](N)[C@@H]2O)C[C@@H]2O[C@](O)(C[C@@H](O)[C@H](O)CC[C@@H](O)C[C@@H](O)C[C@@H](O)CC(=O)O[C@H]1C)C[C@H](O)[C@H]2C(=O)O [Nystatin (Mycostatin)] — higher, 4%
- C#Cc1cccc(Nc2ncnc3cc(OCCOC)c(OCCO)cc23)c1 [OSI-420 (Desmethyl Erlotinib)] — higher, -0.167%
- CC1COc2c(N3CCN(C)CC3)c(F)cc3c(=O)c(C(=O)O)cn1c23 (centres unmarked) [Ofloxacin (Floxin)] — higher, -0.567%
- Cc1cc2c(s1)Nc1ccccc1N=C2N1CCN(C)CC1 [Olanzapine (Zyprexa)] — higher, 12.7%
- CC1(C)CC[C@]2(C(=O)O)CC[C@]3(C)C(=CC[C@@H]4[C@@]5(C)CC[C@H](O)C(C)(C)[C@@H]5CC[C@]43C)[C@@H]2C1 [Oleanolic Acid (Caryophyllin)] — higher, -2%
- CN(C)CC/C=C1/c2ccccc2COc2ccc(CC(=O)O)cc21 [Olopatadine hydrochloride (Opatanol)] — lower, -8.38%
- C=C1C(=O)[C@]23[C@H](O)[C@H]1CC[C@H]2[C@@]12CO[C@]3(O)[C@@H](O)[C@@H]1C(C)(C)CC[C@@H]2O [Oridonin (Isodonol)] — higher, -2.85%
- CCCCCCCCCCC[C@@H](C[C@@H]1OC(=O)[C@H]1CCCCCC)OC(=O)[C@H](CC(C)C)NC=O [Orlistat (Alli, Xenical)] — lower, -9.87%
- O=C(O)c1cc(=O)[nH]c(=O)[nH]1 [Orotic acid (6-Carboxyuracil)] — higher, -3.32%
- COc1ccc2ccc(=O)oc2c1CC=C(C)C [Osthole (Osthol)] — higher, -1.21%
- CCN(CC)CC#CCOC(=O)C(O)(c1ccccc1)C1CCCCC1 (centres unmarked) [Oxybutynin (Ditropan)] — higher, 37.3%
- O=C1CCC[C@@H]2[C@H]3CCC[N@+]4([O-])CCC[C@@H](CN12)[C@@H]34 [Oxymatrine (Matrine N-oxide)] — higher, -1.44%
- Cc1cc(C(C)(C)C)c(O)c(C)c1CC1=NCCN1 [Oxymetazoline hydrochloride] — lower, -9.52%
- CN(C)[C@@H]1C(=O)C(C(N)=O)=C(O)[C@@]2(O)C(=O)C3=C(O)c4c(O)cccc4[C@@](C)(O)[C@H]3[C@H](O)[C@@H]12 [Oxytetracycline (Terramycin)] — higher, 2.79%
- O=C(O)/C=C/c1ccc(Cn2ccnc2)cc1 [Ozagrel] — lower, -9.99%
- CC(=O)O[C@H]1C(=O)[C@@]2(C)[C@H]([C@H](OC(=O)c3ccccc3)[C@]3(O)C[C@H](OC(=O)[C@H](O)[C@@H](NC(=O)c4ccccc4)c4ccccc4)C(C)=C1C3(C)C)[C@]1(OC(C)=O)CO[C@@H]1C[C@@H]2O [Paclitaxel (Taxol)] — lower, -12.8%
